Measured values: US20170050957A1, “4-AMINO-6-(HETEROCYCLIC)PICOLINATES AND 6-AMINO-2-(HETEROCYCLIC)PYRIMIDINE-4-CARBOXYLATES AND THEIR USE AS HERBICIDES” (Dow AgroSciences LLC, priority 2013, published 2017)
Like-named read-outs stand apart in the source and are kept apart here.

Tests used:
[1] = system: Key Broadleaf Weed and Crop Species; experiment: Post-emergent Test II herbicidal activity (Table 15); format: in vivo; conditions: post-emergence, 336 h, 14 d; for pest or weed control at 35 g/ha: 35 g ai/ha; for pest or weed control at 70 g/ha: 70 g ai/ha; for pest or weed control at 140 g/ha: 140 g ai/ha
In short: (§1)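 Post-emergence spray; seedlings 7-21 d old, 1st-2nd true leaf; 187 L/ha; serial rates 1×-1/16×; solvent blank controls; subirrigated; visual % injury at 14 d.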

[2] = system: Key Grass and Sedge Weeds as well as Grass Crops; experiment: Post-emergent Test II herbicidal activity (Table 16); format: in vivo; conditions: post-emergence, 336 h, 14 days after application; for pest or weed control at 35 g/ha: 35 g ai/ha; for pest or weed control at 70 g/ha: 70 g ai/ha; for pest or weed control at 140 g/ha: 140 g ai/ha
In short: as §1

[3] = Abutilon theophrasti, velvetleaf (Abutilon theophrasti), read-out: Visual Growth Reduction (%) 14 Days After Application, ABUTH
[4] = Amaranthus retroflexus, redroot pigweed (Amaranthus retroflexus), read-out: Visual Growth Reduction (%) 14 Days After Application, AMARE
[5] = Brassica napus, oilseed rape, canola (Brassica napus), read-out: Visual Growth Reduction (%) 14 Days After Application, BRSNN
[6] = Chenopodium album, lambsquarters (Chenopodium album), read-out: Visual Growth Reduction (%) 14 Days After Application, CHEAL
[7] = Euphorbia heterophylla, wild poinsettia (Euphorbia heterophylla), read-out: Visual Growth Reduction (%) 14 Days After Application, EPHHL
[8] = Helianthus annuus, sunflower (Helianthus annuus), read-out: Visual Growth Reduction (%) 14 Days After Application, HELAN
[9] = Cyperus esculentus, yellow nutsedge (Cyperus esculentus), read-out: Visual Growth Reduction (%) 14 Days After Application CYPES
[10] = Echinochloa crus-galli, barnyardgrass (Echinochloa crus-galli), read-out: Visual Growth Reduction (%) 14 Days After Application ECHCG
[11] = Oryza sativa, rice (Oryza sativa), read-out: Visual Growth Reduction (%) 14 Days After Application ORYSA
[12] = Setaria faberi, giant foxtail (Setaria faberi), read-out: Visual Growth Reduction (%) 14 Days After Application SETFA
[13] = Triticum aestivum, wheat, spring (Triticum aestivum), read-out: Visual Growth Reduction (%) 14 Days After Application TRZAS
[14] = Zea mays, maize, corn (Zea mays), read-out: Visual Growth Reduction (%) 14 Days After Application ZEAMX

melting point [°C] | Structure (SMILES) | pest or weed control at 35 g/ha [1, 3] [%] | pest or weed control at 70 g/ha [1, 3] [%] | pest or weed control at 140 g/ha [1, 3] [%] | pest or weed control at 35 g/ha [1, 4] [%] | pest or weed control at 70 g/ha [1, 4] [%] | pest or weed control at 140 g/ha [1, 4] [%] | pest or weed control at 35 g/ha [1, 5] [%] | pest or weed control at 70 g/ha [1, 5] [%] | pest or weed control at 140 g/ha [1, 5] [%] | pest or weed control at 35 g/ha [1, 6] [%] | pest or weed control at 70 g/ha [1, 6] [%] | pest or weed control at 140 g/ha [1, 6] [%] | pest or weed control at 35 g/ha [1, 7] [%] | pest or weed control at 70 g/ha [1, 7] [%] | pest or weed control at 140 g/ha [1, 7] [%] | pest or weed control at 35 g/ha [1, 8] [%] | pest or weed control at 70 g/ha [1, 8] [%] | pest or weed control at 140 g/ha [1, 8] [%] | pest or weed control at 35 g/ha [2, 9] [%] | further results
112 | COC(=O)c1nc(-c2cc3sccc3cc2F)c(F)c(N)c1Cl [Compound 3.14] | 0 to 29 | 0 to 29 | 0 to 29 | 85 to 94 | 95 to 100 | 95 to 100 | 0 to 29 | 0 to 29 | 0 to 29 | 85 to 94 | 85 to 94 | 95 to 100 | 30 to 44 | 30 to 44 | 60 to 74 | 85 to 94 | 85 to 94 | 95 to 100 | 0 to 29 | pest or weed control at 70 g/ha [2, 9]: 0 to 29%; pest or weed control at 140 g/ha [2, 9]: 0 to 29%; pest or weed control at 35 g/ha [2, 10]: 0 to 29%; pest or weed control at 70 g/ha [2, 10]: 0 to 29%; pest or weed control at 140 g/ha [2, 10]: 0 to 29%; pest or weed control at 35 g/ha [2, 11]: 0 to 29%; pest or weed control at 70 g/ha [2, 11]: 0 to 29%; pest or weed control at 140 g/ha [2, 11]: 0 to 29%; pest or weed control at 35 g/ha [2, 12]: 0 to 29%; pest or weed control at 70 g/ha [2, 12]: 0 to 29%; pest or weed control at 140 g/ha [2, 12]: 0 to 29%; pest or weed control at 35 g/ha [2, 13]: 0 to 29%; pest or weed control at 70 g/ha [2, 13]: 0 to 29%; pest or weed control at 140 g/ha [2, 13]: 0 to 29%; pest or weed control at 35 g/ha [2, 14]: 0 to 29%; pest or weed control at 70 g/ha [2, 14]: 30 to 44%; pest or weed control at 140 g/ha [2, 14]: 60 to 74%
176 to 177 | Nc1cc(-c2ccc3ccsc3c2)nc(C(=O)O)c1Cl [Compound 3.16] | 60 to 74 | 60 to 74 | 75 to 84 | 85 to 94 | 95 to 100 | 85 to 94 | 0 to 29 | 0 to 29 | 45 to 59 | 85 to 94 | 85 to 94 | 85 to 94 | 60 to 74 | 60 to 74 | 60 to 74 | 0 to 29 | 0 to 29 | 0 to 29 | 0 to 29 | pest or weed control at 70 g/ha [2, 9]: 0 to 29%; pest or weed control at 140 g/ha [2, 9]: 45 to 59%; pest or weed control at 35 g/ha [2, 10]: 75 to 84%; pest or weed control at 70 g/ha [2, 10]: 75 to 84%; pest or weed control at 140 g/ha [2, 10]: 75 to 84%; pest or weed control at 35 g/ha [2, 11]: 0 to 29%; pest or weed control at 70 g/ha [2, 11]: 0 to 29%; pest or weed control at 140 g/ha [2, 11]: 0 to 29%; pest or weed control at 35 g/ha [2, 12]: 0 to 29%; pest or weed control at 70 g/ha [2, 12]: 0 to 29%; pest or weed control at 140 g/ha [2, 12]: 0 to 29%; pest or weed control at 35 g/ha [2, 13]: 0 to 29%; pest or weed control at 70 g/ha [2, 13]: 0 to 29%; pest or weed control at 140 g/ha [2, 13]: 0 to 29%; pest or weed control at 35 g/ha [2, 14]: 60 to 74%; pest or weed control at 70 g/ha [2, 14]: 60 to 74%; pest or weed control at 140 g/ha [2, 14]: 75 to 84%
70 | COC(=O)c1nc(-c2cc3sccc3cc2F)cc(N)c1Cl [Compound 3.17] | 0 to 29 | 45 to 59 | 60 to 74 | 75 to 84 | 95 to 100 | 95 to 100 | 0 to 29 | 0 to 29 | 60 to 74 | 85 to 94 | 95 to 100 | 95 to 100 | 45 to 59 | 60 to 74 | 75 to 84 | 0 to 29 | 0 to 29 | 30 to 44 | 0 to 29 | pest or weed control at 70 g/ha [2, 9]: 0 to 29%; pest or weed control at 140 g/ha [2, 9]: 0 to 29%; pest or weed control at 35 g/ha [2, 10]: 45 to 59%; pest or weed control at 70 g/ha [2, 10]: 60 to 74%; pest or weed control at 140 g/ha [2, 10]: 95 to 100%; pest or weed control at 35 g/ha [2, 11]: 0 to 29%; pest or weed control at 70 g/ha [2, 11]: 0 to 29%; pest or weed control at 140 g/ha [2, 11]: 0 to 29%; pest or weed control at 35 g/ha [2, 12]: 0 to 29%; pest or weed control at 70 g/ha [2, 12]: 0 to 29%; pest or weed control at 140 g/ha [2, 12]: 30 to 44%; pest or weed control at 35 g/ha [2, 13]: 0 to 29%; pest or weed control at 70 g/ha [2, 13]: 0 to 29%; pest or weed control at 140 g/ha [2, 13]: 0 to 29%; pest or weed control at 35 g/ha [2, 14]: 30 to 44%; pest or weed control at 70 g/ha [2, 14]: 60 to 74%; pest or weed control at 140 g/ha [2, 14]: 75 to 84%
